Data taken from publication PMC9007336, “Identification and molecular characterization of a novel non-specific lipid transfer protein (TdLTP2) from durum wheat” (PLoS ONE, 2022).

What follows are compounds tested against T1, rTdLTP2 (Triticum turgidum, UniProt A0A446PDN1) (assay: hydrophobic ELISA plate coated with lipid, anti-LTP detection, one-site fit).
T1 construct: gene LTP2; mature protein expressed from pPICZalphaA in Pichia pastoris, non-tagged, gel filtration and RP-HPLC
Type: binding
Text: hydrophobic ELISA plate coated with lipid, anti-LTP detection, one-site fit on rTdLTP2 | high kd values specifically for oleic, palmitic acids and for sterol (Fig 5B and 5C) | rTdLTP2 can bind a wide range of lipids as oleic, linoleic, stearic, and palmitic acids

T1 sequence (A0A446PDN1 entry or part of it): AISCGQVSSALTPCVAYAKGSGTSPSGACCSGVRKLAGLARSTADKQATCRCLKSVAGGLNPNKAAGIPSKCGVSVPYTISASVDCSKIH

Row | Compound | Kd [nM]
1 | CC[C@H](CC[C@@H](C)[C@H]1CC[C@H]2[C@@H]3CC=C4C[C@@H](O)CC[C@]4(C)[C@H]3CC[C@]12C)C(C)C [B-sitosterol] | 300
2 | CCCCC/C=C\C/C=C\CCCCCCCC(=O)O [linoleic acid] | 590

Continued, values first:

Row | Kd [nM] | Compound
3 | 310 | CCCCCCCCCCCCCCCC(=O)O [Palmitic acid]
4 | 300 | CCCCCCCC/C=C\CCCCCCCC(=O)O [oleic acid]
5 | 470 | CCCCCCCCCCCCCCCCCC(=O)O [stearic acid]
